Source: US12059425B2, “Heterocyclic compounds and uses thereof” (Kumquat Biosciences Inc., priority 2022, dated 2024)

Legend:
A549 cells = assay: Ras cellular assay, cell proliferation A549; format: cell-based; conditions: Homo sapiens
Outline: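 G12S-mutant A549 cells (800/well) in RPMI-1640 plus 10% heat-inactivated FBS, standard or ultra-low attachment 384-well plates, dosed the day after plating with a 10-point 3-fold series. Viability by CellTiter-Glo luminescence about 6 days later; IC50 from four-parameter fit.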

K-Ras G12S = target: T1, K-Ras G12S (Homo sapiens, UniProt P01116, G12S); assay: PPI-HTRF assay, K-Ras G12S / SOS1 interaction; format: biochemical; conditions: read-out: PPI-HTRF-5 nM (K-Ras G12S IC50)
T1 construct: made in house; host or cells: E. coli, e.g. BL21 (DE3)
T1 sequence (P01116 1-188 isoform P01116-2 G12S): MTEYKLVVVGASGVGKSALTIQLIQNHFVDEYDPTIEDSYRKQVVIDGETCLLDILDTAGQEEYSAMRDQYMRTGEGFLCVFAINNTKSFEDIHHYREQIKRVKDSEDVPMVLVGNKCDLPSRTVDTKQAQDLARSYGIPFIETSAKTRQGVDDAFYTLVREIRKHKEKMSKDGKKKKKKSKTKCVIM
Outline: (§1)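 Compound in DMSO is dispensed first, then GST-K-Ras plus anti-GST-Eu(K), then His-hSOS1 plus anti-6His-XL665. Plates incubate about 10 min or longer before HTRF measurement at 620 and 665 nm. IC50 values are derived from the emission ratio for each K-Ras variant.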

K-Ras G12V = target: T2, K-Ras G12V (Homo sapiens, UniProt P01116, G12V); assay: PPI-HTRF assay, K-Ras G12V / SOS1 interaction; format: biochemical; conditions: HTRF, K-Ras G12V; read-out: PPI-HTRF-5 nM (K-Ras G12V IC50)
T2 construct: made in house; host or cells: E. coli, e.g. BL21 (DE3)
T2 sequence (P01116 1-188 isoform P01116-2 G12V): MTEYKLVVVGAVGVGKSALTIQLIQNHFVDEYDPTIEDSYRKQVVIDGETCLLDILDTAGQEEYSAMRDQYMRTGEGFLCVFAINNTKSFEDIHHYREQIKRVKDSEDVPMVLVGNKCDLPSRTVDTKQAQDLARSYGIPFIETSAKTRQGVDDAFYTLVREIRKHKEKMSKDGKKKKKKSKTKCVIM
Outline: as §1

SW620 cells = assay: Ras cellular assay, cell proliferation SW620; format: cell-based; conditions: Homo sapiens, SW-620
Source text: For example, this assay can be also used to assess selective growth inhibition of a mutant Ras protein relative to a wildtype, or relative to a different mutant Ras protein.

K-Ras G12D = target: T3, K-Ras G12D (Homo sapiens, UniProt P01116, G12D); assay: PPI-HTRF assay, K-Ras G12D / SOS1 interaction; format: biochemical; conditions: HTRF, K-Ras G12D; read-out: PPI-HTRF-5 nM (K-Ras G12D IC50)
T3 construct: made in house; host or cells: E. coli, e.g. BL21 (DE3)
T3 sequence (P01116 1-188 isoform P01116-2 G12D): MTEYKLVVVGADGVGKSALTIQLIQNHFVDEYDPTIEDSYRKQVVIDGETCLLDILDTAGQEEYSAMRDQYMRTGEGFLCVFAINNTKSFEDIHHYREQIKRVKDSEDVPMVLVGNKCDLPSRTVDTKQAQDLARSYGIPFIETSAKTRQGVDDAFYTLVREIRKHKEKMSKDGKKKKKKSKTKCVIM
Outline: as §1

GP2D cells = assay: Ras cellular assay, cell proliferation GP2D; format: cell-based
Outline: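 Growth inhibition read by CellTiter-Glo luminescence roughly 5 days after compound addition, which followed overnight plating of G12D-mutant GP2D cells (e.g., 800 per well). Compounds were tested as a serial dilution (e.g., 9 points, 3-fold), with IC50 fitted by four-parameter model.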

wildtype K-Ras = target: T4, wildtype K-Ras (Homo sapiens, UniProt P01116); assay: PPI-HTRF assay, wildtype K-Ras / SOS1 interaction; format: biochemical; conditions: HTRF, K-Ras wt; read-out: PPI-HTRF-5 nM (K-Ras wt IC50)
T4 construct: made in house; host or cells: E. coli, e.g. BL21 (DE3)
T4 sequence (P01116 1-188 isoform P01116-2): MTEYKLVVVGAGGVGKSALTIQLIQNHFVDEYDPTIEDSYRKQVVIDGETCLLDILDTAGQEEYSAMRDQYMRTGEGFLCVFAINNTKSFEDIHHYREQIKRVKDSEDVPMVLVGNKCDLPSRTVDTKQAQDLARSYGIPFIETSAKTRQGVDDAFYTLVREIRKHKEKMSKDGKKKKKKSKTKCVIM
Outline: as §1

Measured: IC50

N#Cc1c(N)sc2c(F)ccc(-c3c(Cl)c4c5c(nc(OCC67CCCN6C[C@H](F)C7)nc5c3F)N3CCCC[C@@H]3CO4)c12 (stereo partly drawn) [compound 103, 2-amino-4-((5aR)-3-chloro-1-fluoro-12-(((2R)-2-fluorotetrahydro-1H-pyrrolizin-7a(5H)-yl)methoxy)-5,5a,6,7,8,9-hexahydropyrido[2′,1′:3,4][1,4]oxazepino [5,6,7-de]quinazolin-2-yl)-7-fluorobenzo[b]thiophene-3-carbonitrile]
< 5 µM: all assays above

N#Cc1c(N)sc2c(F)ccc(-c3c(Cl)c4c5c(nc(OC[C@@]67CCCN6C[C@H](F)C7)nc5c3F)N3CCN(CC(F)F)CCC3CO4)c12 (stereo partly drawn) [compound 170, 2-amino-4-(6-chloro-11-(2,2-difluoroethyl)-4-fluoro-2-(((2R,7aS)-2-fluorotetrahydro-1H-pyrrolizin-7a(5H)-yl)methoxy)-8a,9,10,11,12,13-hexahydro-8H-[1,4]diazepino[7′,1′:3,4][1,4]oxazepino [5,6,7-de]quinazolin-5-yl)-7-fluorobenzo[b]thiophene-3-carbonitrile]
< 5 µM: all assays above

CC1(O)CCN2c3nc(OC[C@@]45CCCN4C[C@H](F)C5)nc4c(F)c(-c5ccc(F)c6sc(N)c(C#N)c56)c(Cl)c(c34)OCC2C1 (stereo partly drawn) [compound 136, 2-amino-4-(3-chloro-1-fluoro-12-(((2R,7aS)-2-fluorotetrahydro-1H-pyrrolizin-7a(5H)-yl)methoxy)-7-hydroxy-7-methyl-5,5a,6,7,8,9-hexahydropyrido[2′,1′:3,4][1,4]oxazepino [5,6,7-de]quinazolin-2-yl)-7-fluorobenzo[b]thiophene-3-carbonitrile]
< 5 µM: all assays above

N#Cc1c(N)sc2c(F)ccc(-c3c(Cl)c4c5c(nc(OC[C@@]67CCCN6C[C@H](F)C7)nc5c3F)N3CCC3CO4)c12 (stereo partly drawn) [compound 178, 2-amino-4-(6-chloro-4-fluoro-2-(((2R,7aS)-2-fluorotetrahydro-1H-pyrrolizin-7a(5H)-yl)methoxy)-8,8a,9,10-tetrahydroazeto[2′,1′:3,4][1,4]oxazepino [5,6,7-de]quinazolin-5-yl)-7-fluorobenzo[b]thiophene-3-carbonitrile]
< 5 µM: all assays above

N#Cc1c(N)sc2c(F)ccc(-c3c(Cl)c4c5c(nc(OC[C@@]67CCCN6C[C@H](F)C7)nc5c3F)N3CCCC(O)C3CO4)c12 (stereo partly drawn) [compound 157, 2-amino-4-(6-chloro-4-fluoro-2-(((2R,7aS)-2-fluorotetrahydro-1H-pyrrolizin-7a(5H)-yl)methoxy)-9-hydroxy-8,8a,9,10,11,12-hexahydropyrido[2′,1′:3,4][1,4]oxazepino [5,6,7-de]quinazolin-5-yl)-7-fluorobenzo[b]thiophene-3-carbonitrile]
< 5 µM: all assays above

N#Cc1c(N)sc2c(F)ccc(-c3c(Cl)c4c5c(nc(OC[C@@]67CCCN6C[C@H](F)C7)nc5c3F)N3CC[C@@H]3CCO4)c12 [compound 167, 2-amino-4-((12aR)-9-chloro-7-fluoro-5-(((2R,7aS)-2-fluorotetrahydro-1H-pyrrolizin-7a(5H)-yl)methoxy)-1,11,12,12a-tetrahydro-2H-azeto[11,2′:5,6][1,5]oxazocino[4,3,2-de]quinazolin-8-yl)-7-fluorobenzo[b]thiophene-3-carbonitrile]
< 5 µM: all assays above

COCC1CCC2COc3c(Cl)c(-c4ccc(F)c5sc(N)c(C#N)c45)c(F)c4nc(OCC56CCCN5C[C@H](F)C6)nc(c34)N2C1 (stereo partly drawn) [compound 121, 2-amino-4-(6-chloro-4-fluoro-2-(((2R)-2-fluorotetrahydro-1H-pyrrolizin-7a(5H)-yl)methoxy)-11-(methoxymethyl)-8,8a,9,10,11,12-hexahydropyrido[2′,1′:3,4][1,4]oxazepino [5,6,7-de]quinazolin-5-yl)-7-fluorobenzo[b]thiophene-3-carbonitrile]
< 5 µM: all assays above

N#Cc1c(N)sc2c(F)ccc(-c3c(Cl)c4c5c(nc(OC[C@@]67CCCN6C[C@H](F)C7)nc5c3F)N3C(CCC3COC(F)F)CO4)c12 (stereo partly drawn) [compound 161, 2-amino-4-(6-chloro-11-((difluoromethoxy)methyl)-4-fluoro-2-(((2R,7aS)-2-fluorotetrahydro-1H-pyrrolizin-7a(5H)-yl)methoxy)-8a,9,10,11-tetrahydro-8H-pyrrolo[2′,1′:3,4][1,4]oxazepino[5,6,7-de]quinazolin-5-yl)-7-fluorobenzo[b]thiophene-3-carbonitrile]
< 5 µM: all assays above

COC1CCC2COc3c(Cl)c(-c4ccc(F)c5sc(N)c(C#N)c45)c(F)c4nc(OC[C@@]56CCCN5C[C@H](F)C6)nc(c34)N2C1 (stereo partly drawn) [compound 182, 2-amino-4-(6-chloro-4-fluoro-2-(((2R,7aS)-2-fluorotetrahydro-1H-pyrrolizin-7a(5H)-yl)methoxy)-11-methoxy-8,8a,9,10,11,12-hexahydropyrido[2′,1′:3,4][1,4]oxazepino [5,6,7-de]quinazolin-5-yl)-7-fluorobenzo[b]thiophene-3-carbonitrile]
< 5 µM: all assays above

N#Cc1c(N)sc2c(F)ccc(-c3c(Cl)c4c5c(nc(OC[C@@]67CCCN6C[C@H](F)C7)nc5c3F)N3Cc5ccnn5CCC3CO4)c12 (stereo partly drawn) [compound 134, 2-amino-4-(3-chloro-1-fluoro-15-(((2R,7aS)-2-fluorotetrahydro-1H-pyrrolizin-7a(5H)-yl)methoxy)-5,5a,6,7-tetrahydro-12H-pyrazolo[5″,1″:3′,4′][1,4]diazepino[7′,1′:3,4][1,4]oxazepino[5,6,7-de]quinazolin-2-yl)-7-fluorobenzo[b]thiophene-3-carbonitrile]
< 5 µM: all assays above

N#Cc1c(N)sc2c(F)ccc(-c3c(Cl)c4c5c(nc(OC[C@@]67CCCN6C[C@H](F)C7)nc5c3F)N(CC(F)F)C3COCC3CO4)c12 (stereo partly drawn) [compound 188, 2-amino-4-(6-chloro-12-(2,2-difluoroethyl)-4-fluoro-2-(((2R,7aS)-2-fluorotetrahydro-1H-pyrrolizin-7a(5H)-yl)methoxy)-8a,9,11a,12-tetrahydro-8H,11H-furo[3′,4′:6,7][1,5]oxazocino[4,3,2-de]quinazolin-5-yl)-7-fluorobenzo[b]thiophene-3-carbonitrile]
< 5 µM: all assays above

N#Cc1c(N)sc2c(F)ccc(-c3c(Cl)c4c5c(nc(OC[C@@]67CCCN6C[C@H](F)C7)nc5c3F)N3CC5(CCCC3CO4)CN(C(=O)C3CC3(F)F)C5)c12 (stereo partly drawn) [compound 155, 2-amino-4-(3-chloro-1′-(2,2-difluorocyclopropane-1-carbonyl)-1-fluoro-13-(((2R,7aS)-2-fluorotetrahydro-1H-pyrrolizin-7a(5H)-yl)methoxy)-5a,6,7,8-tetrahydro-5H,10H-spiro[azepino[2′,1′:3,4][1,4]oxazepino[5,6,7-de]quinazoline-9,3′-azetidin]-2-yl)-7-fluorobenzo[b]thiophene-3-carbonitrile]
< 5 µM: all assays above
